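These data come from cells grown in 96-well plates and exposed to compound for 48 hours at five concentrations. GI50 is the concentration that inhibits growth by half.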 Calls of active or inactive are those of the source. Rule as the data show it: active = GI50 up to about 1.1 µM and inactive = higher.
Tests used:
Assay in all cases: inhibition of tumour cell growth, NCI panel, 48 h
786-0 = system: 786-0
A549 = system: A549
BT-549 = system: BT-549
CAKI-1 = system: CAKI-1
COLO 205 = system: COLO 205
HOP-62 = system: HOP-62
K562 = system: K562
MDA-N = system: MDA-N
RXF 393 = system: RXF 393
SF-539 = system: SF-539
SK-MEL-2 = system: SK-MEL-2
SK-OV-3 = system: SK-OV-3
SN12C = system: SN12C
SR = system: SR
UACC-62 = system: UACC-62
UO-31 = system: UO-31
HOP-92 = system: HOP-92
SNB-75 = system: SNB-75
SW-620 = system: SW-620

Row | Compound | GI50 (786-0) | GI50 (A549) | GI50 (BT-549) | GI50 (CAKI-1) | GI50 (COLO 205) | GI50 (HOP-62) | GI50 (K562) | GI50 (MDA-N) | GI50 (RXF 393) | GI50 (SF-539) | GI50 (SK-MEL-2) | GI50 (SK-OV-3) | GI50 (SN12C) | GI50 (SR) | GI50 (UACC-62) | GI50 (UO-31) | GI50 (HOP-92) | GI50 (SNB-75) | GI50 (SW-620)
1 | COc1c(-c2cccs2)oc2c(CC(=O)O)cccc2c1=O | > 100 µM (inactive) | > 100 µM (inactive) | > 100 µM (inactive) | > 100 µM (inactive) | > 100 µM (inactive) | 1.2 µM (inactive) | > 100 µM (inactive) | > 100 µM (inactive) | > 100 µM (inactive) | > 100 µM (inactive) | > 100 µM (inactive) | > 100 µM (inactive) | > 100 µM (inactive) | 56 µM (inactive) | > 100 µM (inactive) | 10.3 µM (inactive) | – | – | –
2 | O=C(c1ccco1)N(C(=O)N1CCN(c2ccccc2)CC1)S(=O)(=O)c1ccccc1 | 32.1 µM (inactive) | 34.4 µM (inactive) | 32.7 µM (inactive) | 22.8 µM (inactive) | 28.4 µM (inactive) | 39.1 µM (inactive) | 33 µM (inactive) | 22.5 µM (inactive) | – | 19.1 µM (inactive) | 18.5 µM (inactive) | > 100 µM (inactive) | 23.9 µM (inactive) | 23.8 µM (inactive) | 27.4 µM (inactive) | 21.9 µM (inactive) | 27.3 µM (inactive) | 24.5 µM (inactive) | 38.5 µM (inactive)
3 | CC1CC(=O)Nc2nc3ccccc3n21 (centres undefined) | > 100 µM (inactive) | > 100 µM (inactive) | > 100 µM (inactive) | > 100 µM (inactive) | > 100 µM (inactive) | > 100 µM (inactive) | > 100 µM (inactive) | > 100 µM (inactive) | > 100 µM (inactive) | > 100 µM (inactive) | > 100 µM (inactive) | > 100 µM (inactive) | – | > 100 µM (inactive) | > 100 µM (inactive) | > 100 µM (inactive) | > 100 µM (inactive) | – | > 100 µM (inactive)
4 | COc1ccc2cc1Oc1ccc(cc1)C(Sc1ccccc1)CCOC(=O)CC2 (centres undefined) | > 100 µM (inactive) | > 100 µM (inactive) | > 100 µM (inactive) | > 100 µM (inactive) | > 100 µM (inactive) | > 100 µM (inactive) | 82.8 µM (inactive) | > 100 µM (inactive) | > 100 µM (inactive) | > 100 µM (inactive) | > 100 µM (inactive) | > 100 µM (inactive) | > 100 µM (inactive) | > 100 µM (inactive) | > 100 µM (inactive) | > 100 µM (inactive) | – | > 100 µM (inactive) | > 100 µM (inactive)
5 | COc1cc(C(=O)O)c(-c2cc3c(cc2C=O)OCO3)c(OC)c1OC | > 10 µM (inactive) | > 10 µM (inactive) | > 10 µM (inactive) | > 10 µM (inactive) | > 10 µM (inactive) | > 10 µM (inactive) | > 10 µM (inactive) | > 10 µM (inactive) | – | > 10 µM (inactive) | – | > 10 µM (inactive) | > 10 µM (inactive) | > 10 µM (inactive) | > 10 µM (inactive) | – | > 10 µM (inactive) | > 10 µM (inactive) | > 10 µM (inactive)
6 | COc1ccc2c(c1)CC1COc3cc(OC)ccc3C1O2 (centres undefined) | 38.1 µM (inactive) | > 100 µM (inactive) | 44.8 µM (inactive) | > 100 µM (inactive) | > 100 µM (inactive) | > 100 µM (inactive) | – | > 100 µM (inactive) | – | > 100 µM (inactive) | > 100 µM (inactive) | > 100 µM (inactive) | > 100 µM (inactive) | > 100 µM (inactive) | > 100 µM (inactive) | > 100 µM (inactive) | > 100 µM (inactive) | – | > 100 µM (inactive)
7 | COC(=O)/N=[N+](\[O-])C(c1ccccc1)c1ccccc1 | > 100 µM (inactive) | 33.2 µM (inactive) | > 100 µM (inactive) | 76.6 µM (inactive) | 76.2 µM (inactive) | – | 47.8 µM (inactive) | 59.2 µM (inactive) | 63.8 µM (inactive) | > 100 µM (inactive) | 43.2 µM (inactive) | > 100 µM (inactive) | > 100 µM (inactive) | > 100 µM (inactive) | 51.6 µM (inactive) | 13.4 µM (inactive) | – | 82.4 µM (inactive) | > 100 µM (inactive)
8 | CNC(=S)/N=c1/sc(NC)nc2sc3c(c12)CCCC3 | 38.1 µM (inactive) | – | 47.1 µM (inactive) | > 100 µM (inactive) | > 100 µM (inactive) | 55 µM (inactive) | > 100 µM (inactive) | > 100 µM (inactive) | 22.5 µM (inactive) | – | > 100 µM (inactive) | 64.6 µM (inactive) | > 100 µM (inactive) | > 100 µM (inactive) | > 100 µM (inactive) | > 100 µM (inactive) | 37.3 µM (inactive) | – | > 100 µM (inactive)
9 | C1CSC[C@H]2COC[C@@H](CSCCS1)S2 | > 100 µM (inactive) | > 100 µM (inactive) | > 100 µM (inactive) | – | > 100 µM (inactive) | > 100 µM (inactive) | > 100 µM (inactive) | > 100 µM (inactive) | – | > 100 µM (inactive) | – | – | > 100 µM (inactive) | > 100 µM (inactive) | – | > 100 µM (inactive) | > 100 µM (inactive) | 56 µM (inactive) | > 100 µM (inactive)
10 | CN(C)CCCNc1ccc2nnn3c4ccc(OC(=O)c5ccc([N+](=O)[O-])cc5)cc4c(=O)c1c23 | 1.52 µM (inactive) | 1.28 µM (inactive) | 16.4 µM (inactive) | 0.649 µM (active) | 5.22 µM (inactive) | 3.54 µM (inactive) | 2.86 µM (inactive) | 11 µM (inactive) | 1.33 µM (inactive) | 2.9 µM (inactive) | 18.8 µM (inactive) | 6.98 µM (inactive) | 3.05 µM (inactive) | 0.574 µM (active) | 15.9 µM (inactive) | 4.67 µM (inactive) | 10.6 µM (inactive) | – | 2.32 µM (inactive)
11 | C/C=C1\C(=O)O[C@H]2C/C(C)=C/CC/C(C)=C/CC[C@@]3(C)O[C@@H]3C[C@@H]12 | > 100 µM (inactive) | > 100 µM (inactive) | 69.5 µM (inactive) | > 100 µM (inactive) | > 100 µM (inactive) | > 100 µM (inactive) | > 100 µM (inactive) | > 100 µM (inactive) | > 100 µM (inactive) | > 100 µM (inactive) | > 100 µM (inactive) | > 100 µM (inactive) | > 100 µM (inactive) | 37.8 µM (inactive) | > 100 µM (inactive) | > 100 µM (inactive) | – | > 100 µM (inactive) | > 100 µM (inactive)
12 | C=C(C)[C@H]1CC23C(=O)C(C(=O)C(C)C)=C(O)[C@](C)(C[C@H]2C1(C)C)C3=O [LALIBINONE B] | 15.6 µM (inactive) | 20.3 µM (inactive) | 17.5 µM (inactive) | 22 µM (inactive) | 11.1 µM (inactive) | 15.6 µM (inactive) | 20.5 µM (inactive) | 18.9 µM (inactive) | 12.9 µM (inactive) | – | 15.9 µM (inactive) | – | 17 µM (inactive) | 14.5 µM (inactive) | 16.3 µM (inactive) | 18.3 µM (inactive) | – | – | 17.8 µM (inactive)

Source: ChEMBL document CHEMBL1201862, “PubChem BioAssay data set” (2004)
